Assay results as given in patent US20230042881A1, “MODULATORS OF INTEGRATED STRESS RESPONSE PATHWAY” (Praxis Biotech LLC, priority 2021, published 2023).
pIC50: −log10 of the molar value. Read-outs that look alike come from different tables or passages of the source.

Tests used:
[1] = system: ATF4; experiment: ATF4 expression inhibition assay (ATF4 5′UTR luciferase reporter, thapsigargin-stressed); format: cell-based; settings: Homo sapiens, HEK-293T, read-out: ATF4 inhibition
Method: The ATF4 reporter was prepared by fusing the human full length 5′UTR of ATF4 (NCBI Accession No. BC022088.2) upstream of the firefly luciferase coding sequence lacking the initiator methionine. The fused sequence was cloned into pLenti-EF1a-C-Myc-DDK-IRES-Puro cloning vector (Origen #PS100085) using standard methods.
HEK293T cells carrying the ATF4 luciferase reporter were plated on 96-well plates (Nunc) at 10,000 cells per well. Cells were treated two days after seeding with 100 nM thapsigargin (Tg) (Sigma-Aldrich #T9033) in the presence of different concentrations of selected compounds ranging from 0.1 nM to […]. Cells without treatment or cells treated with Tg alone were used as controls. Assay plates containing cells were incubated for 3 hours at 37° C.
Luciferase reactions were performed using Luciferase Assay System (Promega #E1501) as specified by the manufacturer. Luminescence was read with an integration time of 1 s and a gain of 110 using a Cytation-5 multi-mode microplate reader (BioTek).

[2] = system: Chinese hamster ovary (CHO) cells; experiment: Protein synthesis assay (puromycin incorporation, Western blot); format: cell-based; settings: Cricetulus griseus, read-out: % Protein synthesis relative to untreated (1 μM test compound)
Method: Chinese hamster ovary (CHO) cells were maintained at 37° C. and 5% CO2 in Dulbecco's Modified Eagle's Media (DMEM) supplemented with 10% fetal bovine serum, 2 mM L-glutamine, 100 U/ml penicillin, and 100 μg/ml streptomycin. After reaching 80% of confluence, cells were detached and seeded on 6 well plates in complete media, allowed to recover overnight and treated for 2 hours with 1 μM of the test compound (to assess protein synthesis levels in unstressed condition), or for 2 hours with 300 nM Tg in the presence of 1 μM of the test compound (to assess the recovery of protein synthesis in a stressed condition). Cells with Tg alone were used as controls.
After the 2 hours treatments, media were replaced by adding 10 μg/ml puromycin (Sigma Aldrich #P8833) in complete media for 30 min. Media were removed and cells were lysed with SDS-PAGE lysis buffer. Lysates were transferred to 1.5 ml tubes and sonicated for 3 min and total protein amount were quantified using BCA Protein Assay Kit (Pierce). Equal amount of protein (30 μg) was loaded on SDS-PAGE gels.
A HRP-conjugated secondary antibody (Rockland) was employed to detect immune-reactive bands using enhanced chemiluminescence (ECL Western Blotting Substrate, Pierce). Quantification of protein bands was done by densitometry using ImageJ software.
The percentage levels were normalized to the media alone condition, which correspond to 100% protein synthesis. […]

[3] = HEK293T cells carrying ATF4 luciferase reporter, 100 nM thapsigargin (Tg), 3 hours at 37° C.
[4] = unstressed CHO cells (without Tg), 2 hours, 1 μM test compound, media alone = 100%

Row | SMILES | pIC50 [1, 3] | activity at 1 µM [2, 4] [%] | pIC50 ([1]; 3 h) | activity at 1 µM ([2]; CHO, 2 h) [%]
1 | O=C(N[C@H]1CC[C@H](C(=O)NCC2CNc3cc(Cl)ccc3O2)CC1)C1CNc2cc(Cl)ccc2O1 (stereo partly drawn) [Compound 77, 6-chloro-N-(trans-4-(((6-chloro-3,4-dihydro-2H-benzo[b][1,4]oxazin-2-yl)methyl)carbamoyl)cyclohexyl)-3,4-dihydro-2H-benzo[b][1,4]oxazine-2-carboxamide] | 7.00 to 8.00 | 76.6 |  | 
2 | O=C(Nc1ccc2cc(Cl)ccc2n1)C1CCN(C[C@@H](O)COc2ccc(Cl)c(F)c2)CC1 [Compound 8, (R)-1-(3-(4-chloro-3-fluorophenoxy)-2-hydroxypropyl)-N-(6-chloroquinolin-2-yl)piperidine-4-carboxamide] | 7.00 to 8.00 | 156 |  | 
3 | O=C(Nc1ccc2cc(Cl)ccc2n1)C1CCN(C[C@H](O)COc2ccc(Cl)c(F)c2)CC1 [Compound 9, (S)-1-(3-(4-chloro-3-fluorophenoxy)-2-hydroxypropyl)-N-(6-chloroquinolin-2-yl)piperidine-4-carboxamide] | 6.00 to 7.00 | 156 |  | 
4 | O=C(N[C@H]1CC[C@H](C(=O)Nc2nc3cc(Cl)ccc3s2)CC1)c1ccc2cc(Cl)ccc2n1 [Compound 118, 6-chloro-N-(trans-4-(5-chlorobenzo[d]thiazol-2-ylcarbamoyl)cyclohexyl)quinoline-2-carboxamide] | > 8.00 | 109 |  | 
5 | O=C(COc1ccc(Cl)c(F)c1)NN1CCC(C(=O)NCC2CNc3cc(Cl)ccc3O2)CC1 (stereo not drawn) [Compound 68, N-((6-chloro-3,4-dihydro-2H-benzo[b][1,4]oxazin-2-yl)methyl)-1-(2-(4-chloro-3-fluorophenoxy)acetamido)piperidine-4-carboxamide] | > 8.00 | 98.3 |  | 
6 | O=C(N[C@H]1CC[C@H](C(=O)NCc2cc3cc(Cl)ccc3o2)CC1)C1CNc2cc(Cl)ccc2O1 (stereo partly drawn) [Compound 49, 6-chloro-N-(trans-4-(((5-chlorobenzofuran-2-yl)methyl)carbamoyl)cyclohexyl)-3,4-dihydro-2H-benzo[b][1,4]oxazine-2-carboxamide] | 7.00 to 8.00 | 122 |  | 
7 | O=C(COc1ccc(Cl)c(F)c1)NN1CCC(C(=O)Nc2ccc3cc(Cl)ccc3n2)CC1 [Compound 16, 1-(2-(4-chloro-3-fluorophenoxy)acetamido)-N-(6-chloroquinolin-2-yl)piperidine-4-carboxamide] | > 8.00 | 133 |  | 
8 | O=C(COc1ccc(Cl)c(F)c1)N[C@H]1CC[C@H](C(=O)Nc2ccc3cc(Cl)ccc3n2)CC1 [Compound 3, trans-4-(2-(4-chloro-3-fluorophenoxy)acetamido)-N-(6-chloroquinolin-2-yl)cyclohexane-1-carboxamide] | > 8.00 | 188 |  | 
9 | O=C(NN1CCC(C(=O)Nc2nc3cc(Cl)ccc3o2)CC1)c1ccc2cc(Cl)ccc2n1 [Compound 100, 6-chloro-N-(4-(5-chlorobenzo[d]oxazol-2-ylcarbamoyl)piperidin-1-yl)quinoline-2-carboxamide] |  |  | 7.00 to 8.00 | 128
